The values that follow come from ChEMBL document CHEMBL4665833, “Systematic Study of the Glutathione Reactivity of N-Phenylacrylamides: 2. Effects of Acrylamide Substitution” (J Med Chem, 2020).

Common to all, as to assay type: ADME
Data set [1] can be described thus: GSH reactivity in pH 7.4 phosphate buffer assessed as pseudo first-order rate constant at 1 uM in presence of glutathione measured up to 120 mins by LC/MS analysis. Particulars: pH 7.4, 2 h.
The nature of data set [2]: GSH reactivity in pH 7.4 phosphate buffer assessed as half life at 1 uM in presence of glutathione measured up to 120 mins by LC/MS analysis. Particulars: phosphate buffer with glutathione.
Data set [3] can be described thus: GSH reactivity in pH 7.4 phosphate buffer assessed as change in gibbs free energy at 1 uM in presence of glutathione measured up to 120 mins by LC/MS analysis. The settings on record: pH 7.4, 2 h.

As to `CN(C/C=C/C(=O)Nc1ccccc1)CCF`, the K in data set [1] was 2.13 10^-3/min. Also, in data set [2], the half-life at 1 µM stood at 5.43 h.

As for `CN(C)CC/C=C/C(=O)Nc1ccccc1`, the deltaG in data set [3] is 24.7 kcal/mol.

On to `CCN(CC)C/C=C/C(=O)Nc1ccccc1`, for which the deltaG in data set [3] was determined as 24.1 kcal/mol.

Regarding `O=C(/C=C/CN1CCCC1)Nc1ccccc1`, in data set [3], the deltaG is listed as 24.1 kcal/mol.

In the case of `O=C(/C=C/C(F)F)Nc1ccccc1`, the deltaG in data set [3] was 23.3 kcal/mol.

For the compound `O=C(/C=C/CN1CC(F)(F)C(F)(F)C1)Nc1ccccc1`, the deltaG in data set [3] was over 24.7 kcal/mol.

Consider `O=C(/C=C/CN1CC(F)C1)Nc1ccccc1`, for which the K in data set [1] is recorded as < 1.35 10^-3/min.

`C=C(C(=O)Nc1ccccc1)C(F)(F)F`: the deltaG in data set [3] was 22.6 kcal/mol.

With `C=C(Cl)C(=O)Nc1ccccc1`, the deltaG in data set [3] was found to be 21.6 kcal/mol. Also, the K in data set [1] is 231 10^-3/min. In data set [2], the half-life at 1 µM came out at 0.05 h.

With `C=CC(=O)Nc1ccccc1`, in data set [3], the deltaG is listed as 24.1 kcal/mol.

As for `CN(C)C/C=C/C(=O)Nc1ccccc1`, the deltaG in data set [3] was 23.9 kcal/mol.

Turning to `C=C(CN(C)C)C(=O)Nc1ccccc1`, in data set [3], the deltaG is given as under 21.4 kcal/mol.
